These results are taken from paper PMC11125126, “Synthesis, Characterisation, and In Vitro Evaluation of Biocompatibility, Antibacterial and Antitumor Activity of Imidazolium Ionic Liquids” (Pharmaceutics, 2024).

Read-outs that look alike come from different tables or passages of the source.

For one data set, the system named is HDF cells. Briefly: Indirect cytotoxic test (ISO 10993-5 elution) of IL-loaded PVC, Alamar blue. The class given is cell-based, human. The settings on record: IL loaded into the PVC matrix at 0.5 and 1 wt%; 24 h elution, 24 h exposure. How it is done:
Indirect test: ISO 10993-5, which provides test procedures to evaluate the in vitro cytotoxicity of medical devices, was employed to test biocompatibility. The elution test was conducted by incubating the material in a sterile DMEM solution (extraction vehicle prepared as described earlier) at a ratio of 0.1 g/1.0 mL at 37 °C (following ISO 10993-12 guidelines). After 24 h of elution time, the conditioned media (eluants) were collected, and 200 µL were pipetted into a 96-well plate previously seeded with HDF cells at 80% confluence. The plate was incubated for an additional 24 h (exposure time).
Cell viability was assessed in both cases using the Alamar blue assay, as described earlier. Furthermore, immunofluorescence microscopy was utilised to examine cell-material interactions and their spread using a fluorescent dye. Specifically, HDF cells were labelled with CellTracker^TM Red CMTPX (Invitrogen, Milan, Italy) in a 75 cm^2 cell culture flask, trypsinised, and then seeded onto IL-loaded polymer substrates. The cells were then incubated for 24 h at 37 °C. […]
To assess the possibility of developing substrates for use in various biomedical applications, from drug delivery to tissue engineering or as an antimicrobial coating, the biocompatibility of ionic-liquid-loaded polymeric substrates (ILs) was also evaluated using indirect and direct cytotoxicity assays. […]

For a further data set, the system named is Pseudomonas fluorescens. Briefly: MIC/MBC by broth dilution, pure ILs. The class given is cell-based. The settings on record: 24 h; for MBC: read-out: MBC; for MIC: read-out: MIC. An excerpt: Within the Di3A (Dipartimento di Agricoltura, Alimentazione e Ambiente, University of Catania, Italy) microbial collection, two Gram-negative strains (Escherichia coli and Pseudomonas fluorescens) and one Gram-positive strain (Listeria monocytogenes) were studied in order to define the potential efficacy of ionic liquids in relation to the different structure of the bacterial cell wall.
For the pure ILs, the minimal inhibitory concentration (MIC) and minimal bactericidal concentration (MBC) were determined in Nutrient Broth (NB, Oxoid, Basingstoke, UK) medium by broth dilution method, according to the Clinical and Laboratory Standards Institute (CLSI).
All the bacterial strains were individually grown for 24 h at 35 or 27 °C for P. fluorescens, with shaking. After the incubation period, the cells were collected by centrifugation and re-suspended in sterile NB to obtain a stock culture of 10^9 CFU/mL. […]
Tubes were incubated at 35 or 27 °C in an orbital shaker and evaluated for the viable count of E. coli, P. fluorescens, and L. monocytogenes after 24 h by spread-plating 100 µL of each suspension on Nutrient Agar (NA, Oxoid, Basingstoke, UK) incubated for 24–48 h at 35 or 27 °C.
In this study, MIC and MBC are expressed in both µg/mL and µM to make the comparison with the literature data easy. Each experiment was performed in triplicate.

Setting [1] is: NI = no inhibition at IL maximum concentration used (1000 µM).

As to `CCCCCCCCCCn1cc[n+](C)c1.F[B-](F)(F)F` [C10mimBF4], the “HDF cell viability, indirect cytotoxic test” value with HDF cells is “good cell survival”. In the data set on Pseudomonas fluorescens (10^6 CFU/mL), the MBC came out at 155 µg/mL and the MIC was determined as 38.8 µg/mL. Moreover, in the data set on Pseudomonas fluorescens (setting [1]), the MBC stood at 500 µM and the MIC is 125 µM.
